According to article PMC9952270, “Mitochondrial Peroxiredoxin 3 Is Rapidly Oxidized and Hyperoxidized by Fatty Acid Hydroperoxides” (Antioxidants, 2023):

T1: HsPrx3 (human peroxiredoxin 3, wtHsPrx3) (Homo sapiens, UniProt P30048)
T1 construct: gene PRDX3; three additional N-terminal Gly; E. coli BL21 Star (DE3); reduced subunit predicted 21,797 Da; three Cys; dodecamer when reduced
T1 sequence (P30048 62-256): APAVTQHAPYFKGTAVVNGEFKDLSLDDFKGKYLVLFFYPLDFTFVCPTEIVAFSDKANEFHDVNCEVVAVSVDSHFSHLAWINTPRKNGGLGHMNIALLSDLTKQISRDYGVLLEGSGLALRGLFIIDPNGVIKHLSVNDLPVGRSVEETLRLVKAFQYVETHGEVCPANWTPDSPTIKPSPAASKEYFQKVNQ


Columns and labels:
[1] = molecular target: T1, HsPrx3 (human peroxiredoxin 3, wtHsPrx3); assay: stopped-flow intrinsic fluorescence, slope of kobs of second phase; format: biochemical; conditions: rate constant of peroxidatic Cys hyperoxidation; covalent oxidation, inactivating; pH 7.8, 11–12 °C, 50 mM sodium phosphate, 0.1 mM DTPA
Text: stopped-flow intrinsic fluorescence, slope of kobs of second phase on HsPrx3 (human peroxiredoxin 3, wtHsPrx3)

[2] = molecular target: T1, HsPrx3 (human peroxiredoxin 3, wtHsPrx3); assay: thermal unfolding by intrinsic fluorescence; format: binding; conditions: reduced HsPrx3 4 µM, AA 10 µM, 2 mM DTT, 50 mM phosphate, 0.1 mM DTPA, pH 7.8
[3] = molecular target: T1, HsPrx3 (human peroxiredoxin 3, wtHsPrx3); assay: intrinsic tryptophan fluorescence quenching / FRET titration, hyperbolic fit; format: binding
[4] = molecular target: the molecule itself; assay: ESI mass spectrometry of the intact protein after C4 HPLC; reduced HsPrx3 (10 µM) in 50 mM phosphate buffer plus 0.1 mM DTPA, pH 7.8, 25 °C, exposed to H2O2 (20 µM) or 15(S)-HpEPE (10 or 20 µM), alkylated with 2-iodoacetamide (5 mM); disulfide-bonded dimer

Row | khyperox. (M^-1s^-1) [1] | Molecule | further results
1 | (2.6 ± 0.4) × 10^7 M^−1s^−1 | CC/C=C\C[C@@H](/C=C/C=C\C/C=C\C/C=C\CCCC(=O)O)OO [15(S)-HpEPE, 15S-hydroperoxy-5Z,8Z,11Z,13E,17Z-eicosapentaenoic acid] | 
2 | (1.7 ± 0.1) × 10^7 M^−1s^−1 | CCCCC[C@@H](/C=C/C=C\C/C=C\C/C=C\CCCC(=O)O)OO [15(S)-HpETE, 15S-hydroperoxy-5Z,8Z,11Z,13E-eicosatetraenoic acid] | 
3 |  | CCCCC/C=C\C/C=C\C/C=C\C/C=C\CCCC(=O)O [AA] | Tm shift [2]: ~ 4 °C
4 |  | O=S(=O)(O)c1cccc2cccc(Nc3ccccc3)c12 [ANS, 8-anilino-1-naphtalene sulfonic acid] | Kd [3]: 65 ± 4 µM
5 | (3.1 ± 0.7) × 10^5 M^−1s^−1 | CCCCC[C@@H](/C=C/[C@@H]1[C@@H](C/C=C\CCCC(=O)O)[C@@H]2C[C@H]1OO2)OO [PGG2, 9α,11α-epidioxy-15S-hydroperoxy-prosta-5Z,13E-dien-1-oic acid] | 
6 |  | Human peroxiredoxin 3 (wild type, recombinant, lacking the mitochondrial targeting sequence) (enzyme, predicted molecular weight of the reduced subunit 21,797 Da; Samples were alkylated (NEM or 2-iodoacetamide) before analysis; also called HsPrx3; wtHsPrx3; source: E. coli BL21 Star (DE3), purified as previously reported [13]) GGGAPAVTQHAPYFKGTAVVNGEFKDLSLDDFKGKYLVLFFYPLDFTFVCPTEIVAFSDKANEFHDVNCEVVAVSVDSHFSHLAWINTPRKNGGLGHMNIALLSDLTKQISRDYGVLLEGSGLALRGLFIIDPNGVIKHLSVNDLPVGRSVEETLRLVKAFQYVETHGEVCPANWTPDSPTIKPSPAASKEYFQKVNQ | stoichiometry N [4]: 2
